From ChEMBL document CHEMBL1208720, “N-Benzylsalicylthioamides as novel compounds with promising antimycotic activity” (2010)
In brackets after ≈: the same amount, converted by molar mass.

What was measured:
Assay type in all cases: functional
Candida albicans [1] = test: Antifungal activity against Candida albicans ATCC 44859 after 24 hrs by broth microdilution assay; details: for MIC: Candida albicans, ATCC 44859, 24 h
Candida albicans [2] = test: Antifungal activity against Candida albicans ATCC 44859 after 48 hrs by broth microdilution assay; details: for MIC: Candida albicans, ATCC 44859, 48 h
Candida tropicalis [3] = test: Antifungal activity against Candida tropicalis 159 after 24 hrs by broth microdilution assay; details: for MIC: Candida tropicalis, 159, 24 h
Candida tropicalis [4] = test: Antifungal activity against Candida tropicalis 159 after 48 hrs by broth microdilution assay; details: for MIC: Candida tropicalis, 159, 48 h
Pichia kudriavzevii [5] = test: Antifungal activity against Candida krusei E28 after 24 hrs by broth microdilution assay; details: for MIC: Pichia kudriavzevii, E28, 24 h
Pichia kudriavzevii [6] = test: Antifungal activity against Candida krusei E28 after 48 hrs by broth microdilution assay; details: for MIC: Pichia kudriavzevii, E28, 48 h
Nakaseomyces glabratus [7] = test: Antifungal activity against Candida glabrata 20/I after 24 hrs by broth microdilution assay; details: for MIC: Nakaseomyces glabratus, 20/I, 24 h
Nakaseomyces glabratus [8] = test: Antifungal activity against Candida glabrata 20/I after 48 hrs by broth microdilution assay; details: for MIC: Nakaseomyces glabratus, 20/I, 48 h
Trichosporon asahii [9] = test: Antifungal activity against Trichosporon asahii 1188 after 24 hrs by broth microdilution assay; details: for MIC: Trichosporon asahii, 1188, 24 h
Trichosporon asahii [10] = test: Antifungal activity against Trichosporon asahii 1188 after 48 hrs by broth microdilution assay; details: for MIC: Trichosporon asahii, 1188, 48 h
Aspergillus fumigatus [11] = test: Antifungal activity against Aspergillus fumigatus 231 after 24 hrs by broth microdilution assay; details: for MIC: Aspergillus fumigatus, 231, 24 h
Aspergillus fumigatus [12] = test: Antifungal activity against Aspergillus fumigatus 231 after 48 hrs by broth microdilution assay; details: for MIC: Aspergillus fumigatus, 231, 48 h
Lichtheimia corymbifera [13] = test: Antifungal activity against Absidia corymbifera 272 after 24 hrs by broth microdilution assay; details: for MIC: Lichtheimia corymbifera, 272, 24 h
Lichtheimia corymbifera [14] = test: Antifungal activity against Absidia corymbifera 272 after 48 hrs by broth microdilution assay; details: for MIC: Lichtheimia corymbifera, 272, 48 h
[15] = test system: Trichophyton mentagrophytes; test: Antifungal activity against Trichophyton mentagrophytes 445 after 72 hrs by broth microdilution assay; details: for MIC: Trichophyton mentagrophytes, 445, 72 h
[16] = test system: Trichophyton mentagrophytes; test: Antifungal activity against Trichophyton mentagrophytes 445 after 120 hrs by broth microdilution assay; details: for MIC: Trichophyton mentagrophytes, 445, 120 h

MIC (Candida albicans [1]) [µM]	MIC (Candida albicans [2]) [µM]	MIC (Candida tropicalis [3]) [µM]	MIC (Candida tropicalis [4]) [µM]	MIC (Pichia kudriavzevii [5]) [µM]	MIC (Pichia kudriavzevii [6]) [µM]	MIC (Nakaseomyces glabratus [7]) [µM]	MIC (Nakaseomyces glabratus [8]) [µM]	MIC (Trichosporon asahii [9]) [µM]	MIC (Trichosporon asahii [10]) [µM]	MIC (Aspergillus fumigatus [11]) [µM]	MIC (Aspergillus fumigatus [12]) [µM]	MIC (Lichtheimia corymbifera [13]) [µM]	MIC (Lichtheimia corymbifera [14]) [µM]	MIC [15] [µM]	MIC [16] [µM]	Compound	further results
125 (≈ 32.2 µg/mL)	250 (≈ 64.3 µg/mL)	125 (≈ 32.2 µg/mL)	250 (≈ 64.3 µg/mL)	125 (≈ 32.2 µg/mL)	250 (≈ 64.3 µg/mL)	125 (≈ 32.2 µg/mL)	250 (≈ 64.3 µg/mL)	31.2 (≈ 8.04 µg/mL)	62.5 (≈ 16.1 µg/mL)	62.5 (≈ 16.1 µg/mL)	62.5 (≈ 16.1 µg/mL)	62.5 (≈ 16.1 µg/mL)	15.6 (≈ 4.02 µg/mL)	15.6 (≈ 4.02 µg/mL)	15.6 (≈ 4.02 µg/mL)	Cc1cccc(CNC(=S)c2ccccc2O)c1	
62.5 (≈ 16.1 µg/mL)	125 (≈ 32.2 µg/mL)	125 (≈ 32.2 µg/mL)	250 (≈ 64.3 µg/mL)	62.5 (≈ 16.1 µg/mL)	125 (≈ 32.2 µg/mL)	125 (≈ 32.2 µg/mL)	250 (≈ 64.3 µg/mL)	62.5 (≈ 16.1 µg/mL)	62.5 (≈ 16.1 µg/mL)	62.5 (≈ 16.1 µg/mL)	125 (≈ 32.2 µg/mL)	7.81 (≈ 2.01 µg/mL)	31.2 (≈ 8.04 µg/mL)	31.2 (≈ 8.04 µg/mL)	31.2 (≈ 8.04 µg/mL)	Cc1ccc(C(=S)NCc2ccccc2)c(O)c1	
125 (≈ 34.7 µg/mL)	125 (≈ 34.7 µg/mL)	125 (≈ 34.7 µg/mL)	125 (≈ 34.7 µg/mL)	62.5 (≈ 17.4 µg/mL)	125 (≈ 34.7 µg/mL)	125 (≈ 34.7 µg/mL)	250 (≈ 69.4 µg/mL)	31.2 (≈ 8.68 µg/mL)	31.2 (≈ 8.68 µg/mL)	62.5 (≈ 17.4 µg/mL)	62.5 (≈ 17.4 µg/mL)	31.2 (≈ 8.68 µg/mL)	31.2 (≈ 8.68 µg/mL)	7.81 (≈ 2.17 µg/mL)	15.6 (≈ 4.34 µg/mL)	Oc1ccccc1C(=S)NCc1cccc(Cl)c1	

Further lines, the molecule ahead of its results:

Compound	MIC (Candida albicans [1]) [µM]	MIC (Candida albicans [2]) [µM]	MIC (Candida tropicalis [3]) [µM]	MIC (Candida tropicalis [4]) [µM]	MIC (Pichia kudriavzevii [5]) [µM]	MIC (Pichia kudriavzevii [6]) [µM]	MIC (Nakaseomyces glabratus [7]) [µM]	MIC (Nakaseomyces glabratus [8]) [µM]	MIC (Trichosporon asahii [9]) [µM]	MIC (Trichosporon asahii [10]) [µM]	MIC (Aspergillus fumigatus [11]) [µM]	MIC (Aspergillus fumigatus [12]) [µM]	MIC (Lichtheimia corymbifera [13]) [µM]	MIC (Lichtheimia corymbifera [14]) [µM]	MIC [15] [µM]	MIC [16] [µM]	further results
Cc1ccc(CNC(=S)c2ccccc2O)cc1	62.5 (≈ 16.1 µg/mL)	125 (≈ 32.2 µg/mL)	125 (≈ 32.2 µg/mL)	125 (≈ 32.2 µg/mL)	62.5 (≈ 16.1 µg/mL)	125 (≈ 32.2 µg/mL)	125 (≈ 32.2 µg/mL)	125 (≈ 32.2 µg/mL)	31.2 (≈ 8.04 µg/mL)	62.5 (≈ 16.1 µg/mL)	125 (≈ 32.2 µg/mL)	250 (≈ 64.3 µg/mL)	15.6 (≈ 4.02 µg/mL)	31.2 (≈ 8.04 µg/mL)	31.2 (≈ 8.04 µg/mL)	15.6 (≈ 4.02 µg/mL)	
Oc1ccccc1C(=S)NCc1ccc(F)cc1	62.5 (≈ 16.3 µg/mL)	125 (≈ 32.7 µg/mL)	125 (≈ 32.7 µg/mL)	250 (≈ 65.3 µg/mL)	62.5 (≈ 16.3 µg/mL)	125 (≈ 32.7 µg/mL)	125 (≈ 32.7 µg/mL)	250 (≈ 65.3 µg/mL)	31.2 (≈ 8.17 µg/mL)	62.5 (≈ 16.3 µg/mL)	62.5 (≈ 16.3 µg/mL)	62.5 (≈ 16.3 µg/mL)	15.6 (≈ 4.08 µg/mL)	31.2 (≈ 8.17 µg/mL)	7.81 (≈ 2.04 µg/mL)	31.2 (≈ 8.17 µg/mL)	
Cc1ccc(CNC(=S)c2ccc(C)cc2O)cc1	125 (≈ 33.9 µg/mL)	250 (≈ 67.8 µg/mL)	125 (≈ 33.9 µg/mL)	500 (≈ 136 µg/mL)	62.5 (≈ 17 µg/mL)	125 (≈ 33.9 µg/mL)	125 (≈ 33.9 µg/mL)	500 (≈ 136 µg/mL)	31.2 (≈ 8.48 µg/mL)	62.5 (≈ 17 µg/mL)	125 (≈ 33.9 µg/mL)	500 (≈ 136 µg/mL)	7.81 (≈ 2.12 µg/mL)	31.2 (≈ 8.48 µg/mL)	15.6 (≈ 4.24 µg/mL)	15.6 (≈ 4.24 µg/mL)	
COc1ccc(C(=S)NCc2ccccc2)c(O)c1	62.5 (≈ 17.1 µg/mL)	250 (≈ 68.3 µg/mL)	250 (≈ 68.3 µg/mL)	250 (≈ 68.3 µg/mL)	250 (≈ 68.3 µg/mL)	250 (≈ 68.3 µg/mL)	500 (≈ 137 µg/mL)	500 (≈ 137 µg/mL)	250 (≈ 68.3 µg/mL)	250 (≈ 68.3 µg/mL)	250 (≈ 68.3 µg/mL)	500 (≈ 137 µg/mL)	62.5 (≈ 17.1 µg/mL)	250 (≈ 68.3 µg/mL)	62.5 (≈ 17.1 µg/mL)	62.5 (≈ 17.1 µg/mL)	
Cc1ccc(CNC(=S)c2cc([N+](=O)[O-])ccc2O)cc1	500 (≈ 151 µg/mL)	> 500	> 500	> 500	> 500	> 500	> 500	> 500	500 (≈ 151 µg/mL)	500 (≈ 151 µg/mL)	500 (≈ 151 µg/mL)	500 (≈ 151 µg/mL)	500 (≈ 151 µg/mL)	500 (≈ 151 µg/mL)	62.5 (≈ 18.9 µg/mL)	62.5 (≈ 18.9 µg/mL)	
Cc1cccc(C(=S)NCc2ccc(Cl)cc2)c1O	62.5 (≈ 18.2 µg/mL)	125 (≈ 36.5 µg/mL)	125 (≈ 36.5 µg/mL)	250 (≈ 73 µg/mL)	> 500	> 500	> 500	> 500	62.5 (≈ 18.2 µg/mL)	62.5 (≈ 18.2 µg/mL)	62.5 (≈ 18.2 µg/mL)	125 (≈ 36.5 µg/mL)	31.2 (≈ 9.12 µg/mL)	31.2 (≈ 9.12 µg/mL)	15.6 (≈ 4.56 µg/mL)	15.6 (≈ 4.56 µg/mL)	
COc1ccc(O)c(C(=S)NCc2ccccc2)c1																	logMIC (Candida albicans [1]): 2.1; logMIC (Candida albicans [2]): 2.4; logMIC (Candida tropicalis [3]): 2.4; logMIC (Candida tropicalis [4]): 2.4; logMIC (Pichia kudriavzevii [5]): 2.4; logMIC (Pichia kudriavzevii [6]): 2.4; logMIC (Nakaseomyces glabratus [7]): 2.4; logMIC (Nakaseomyces glabratus [8]): 2.4; logMIC (Trichosporon asahii [9]): 2.1; logMIC (Trichosporon asahii [10]): 2.4; logMIC (Aspergillus fumigatus [11]): 2.4; logMIC (Aspergillus fumigatus [12]): 2.4; logMIC (Lichtheimia corymbifera [13]): 1.49; logMIC (Lichtheimia corymbifera [14]): 2.1; logMIC [15]: 1.8; logMIC [16]: 1.8
